Measured values reported in the Kinase Knowledgebase extract (Sharma et al. 2016).

What follows are compounds tested against CDK2 (human) (UniProt P24941) (assay: Enzyme Assay).

In order of rising IC50:
1. CCNc1nc(N[C@H]2CC[C@H](N)CC2)nc2c1ncn2C1CCCC1  0.013 µM
2. N[C@H]1CC[C@H](Nc2nc(NCCCO)c3ncn(C4CCCC4)c3n2)CC1  0.018 µM
3. CCCCNc1nc(N[C@H]2CC[C@H](N)CC2)nc2c1ncn2C1CCCC1  0.023 µM
4. CCCCCNc1nc(N[C@H]2CC[C@H](N)CC2)nc2c1ncn2C1CCCC1  0.053 µM
5. N[C@H]1CC[C@H](Nc2nc(NCc3cccs3)c3ncn(C4CCCC4)c3n2)CC1  0.056 µM
6. N[C@H]1CC[C@H](Nc2nc(NNCC(F)(F)F)c3ncn(C4CCCC4)c3n2)CC1  0.058 µM
7. N[C@H]1CC[C@H](Nc2nc(NCCCCc3ccccc3)c3ncn(C4CCCC4)c3n2)CC1  0.059 µM
8. N[C@H]1CC[C@H](Nc2nc(NCCc3ccncc3)c3ncn(C4CCCC4)c3n2)CC1  0.069 µM
9. N[C@H]1CC[C@H](Nc2nc(NCCCN3CCOCC3)c3ncn(C4CCCC4)c3n2)CC1  0.116 µM
10. CC(C)n1cnc2c(NCC3CC3)nc(N[C@H]3CC[C@H](N)CC3)nc21  0.141 µM
11. CCCCCCCCNc1nc(N[C@H]2CC[C@H](N)CC2)nc2c1ncn2C1CCCC1  0.36 µM
12. CC(C)n1cnc2c(NCCCC(=O)c3ncc[nH]3)nc(N[C@H]3CC[C@H](N)CC3)nc21  0.84 µM
